The target of the test is T1, human TRPM8 (Homo sapiens, UniProt Q7Z2W7).
T1 construct: expressed in transfected cells
The test is described as follows: In Vitro human TRPM8 Functional Assay (intracellular Ca2+, Fluo4, FDSS, menthol activation). Type of test: cell-based. As to conditions: HEK293 cells stably expressing human TRPM8; activation with L-(-)-Menthol; 11-point dose-response. The method, boiled down:
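Fluo4-loaded HEK293 cells stably expressing TRPM8 were preincubated with compound for 5 min at room temperature, then stimulated with L-menthol (20 μl of 90 μM stock) while fluorescence was read. IC50 values come from 11-point curves fitted to the mean of duplicate wells.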

Where only a bound is given, the exact number is not on record here.

T1 sequence (Q7Z2W7 whole entry): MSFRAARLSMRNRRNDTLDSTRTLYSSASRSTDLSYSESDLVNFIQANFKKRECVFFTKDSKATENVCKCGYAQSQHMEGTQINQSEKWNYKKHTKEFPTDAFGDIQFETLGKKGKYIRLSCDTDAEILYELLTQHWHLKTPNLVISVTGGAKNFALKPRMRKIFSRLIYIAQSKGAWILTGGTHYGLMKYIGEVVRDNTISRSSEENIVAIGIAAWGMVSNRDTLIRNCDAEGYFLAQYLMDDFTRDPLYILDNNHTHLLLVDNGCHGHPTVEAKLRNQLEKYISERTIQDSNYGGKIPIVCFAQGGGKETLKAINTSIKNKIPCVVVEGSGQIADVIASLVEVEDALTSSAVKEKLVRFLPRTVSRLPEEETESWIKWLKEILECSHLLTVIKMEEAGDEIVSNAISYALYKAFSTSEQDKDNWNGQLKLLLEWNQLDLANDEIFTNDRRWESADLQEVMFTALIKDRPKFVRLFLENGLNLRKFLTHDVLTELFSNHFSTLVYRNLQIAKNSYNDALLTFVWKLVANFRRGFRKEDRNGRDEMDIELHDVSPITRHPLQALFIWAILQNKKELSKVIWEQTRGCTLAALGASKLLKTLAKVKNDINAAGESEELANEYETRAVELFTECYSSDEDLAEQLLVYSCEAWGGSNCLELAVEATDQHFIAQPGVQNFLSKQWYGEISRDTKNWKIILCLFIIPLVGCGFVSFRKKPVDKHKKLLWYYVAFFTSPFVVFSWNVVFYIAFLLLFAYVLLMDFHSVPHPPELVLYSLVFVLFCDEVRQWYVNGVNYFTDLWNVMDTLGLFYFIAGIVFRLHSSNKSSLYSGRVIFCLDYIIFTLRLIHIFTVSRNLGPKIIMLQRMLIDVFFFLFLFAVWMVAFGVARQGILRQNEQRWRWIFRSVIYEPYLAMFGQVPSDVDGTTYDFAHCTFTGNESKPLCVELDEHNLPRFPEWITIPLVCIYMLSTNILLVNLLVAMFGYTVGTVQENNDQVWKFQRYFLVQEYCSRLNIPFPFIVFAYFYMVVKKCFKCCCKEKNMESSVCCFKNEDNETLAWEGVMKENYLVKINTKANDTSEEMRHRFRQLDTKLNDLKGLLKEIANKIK

Turning to `COc1ccccc1N(Cc1ccccc1)S(=O)(=O)c1cccc(C(=O)O)c1` [Example 114, 3-(N-Benzyl-N-(2-methoxyphenyl)sulfamoyl) benzoic acid], the IC50 (commonly the midpoint of a concentration-inhibition curve) was 10000 to 30000 nM.

Take `O=C(O)c1ccc(S(=O)(=O)N(Cc2ccccc2)c2ncc(C(F)(F)F)cc2Cl)c(Cl)c1` [Example 181, 4-(N-Benzyl-N-(3-chloro-5-(trifluoromethyl)pyridin-2-yl)sulfamoyl)-3-chlorobenzoic acid]: the half-maximal inhibitory concentration (IC50) was less than 1000 nM.

Molecule `O=S(=O)(c1cc(Cl)ccc1Cl)N(Cc1ccccc1)c1ccccn1` [Example 109, N-Benzyl-2,5-dichloro-N-(pyridin-2-yl)benzene sulfonamide] showed an IC50 of 1000 to 10000 nM.

`O=C(O)c1ccc(Cl)c(S(=O)(=O)N(Cc2ccccc2)c2ccc(Cl)cc2)c1` [Example 110, 3-(N-Benzyl-N-(4-chlorophenyl)sulfamoyl)-4-chlorobenzoic acid] had an IC50 of 1000 to 10000 nM.

In the case of `Cc1cc(Cl)cnc1N(Cc1ccc(OC(F)(F)F)cc1)S(=O)(=O)c1ccc(C(=O)O)cc1` [Example 78, 4-(N-(5-Chloro-3-methylpyridin-2-yl)-N-(4-(trifluoromethoxy)benzyl)sulfamoyl)benzoic acid], the half-inhibitory concentration (IC50) was less than 1000 nM.

`Cc1cc(Cl)cnc1N(Cc1ccc(Cl)cc1C(F)(F)F)S(=O)(=O)c1ccc(C(=O)O)cc1` [Example 75, 4-(N-(4-Chloro-2-(trifluoromethyl)benzyl)-N-(5-chloro-3-methylpyridin-2-yl)sulfamoyl)benzoic acid] showed an IC50 of less than 1000 nM.

`COc1cccc(N(CC(=O)N2CCN(Cc3ccccc3)CC2)S(=O)(=O)c2ccccc2)c1` [Example 84, N-(2-(4-Benzylpiperazin-1-yl)-2-oxoethyl)-N-(3-methoxyphenyl)benzene-sulfonamide]: the concentration for half-maximal inhibition (IC50) was 1000 to 10000 nM.

`O=C(O)c1ccc(S(=O)(=O)N(Cc2ccc(F)cc2F)c2ncc(C(F)(F)F)cc2Cl)cc1` [Example 26, 4-(N-(3-Chloro-5-(trifluoromethyl)pyridin-2-yl)-N-(2,4-difluorobenzyl)sulfamoyl)benzoic acid] displayed an IC50 of less than 1000 nM.

The molecule `COc1ccc(N(C(C)c2ccc(C)cc2)S(=O)(=O)c2cc(Cl)ccc2F)cc1` (stereo not drawn) [Example 134, 5-Chloro-2-fluoro-N-(4-methoxyphenyl)-N-(1-p-tolylethyl)benezene-sulfonamide] yielded an IC50 of 1000 to 10000 nM.

In turn, `COc1ccc(N(Cc2ccccc2)S(=O)(=O)c2cccc(C(=O)O)c2)cc1` [Example 113, 3-(N-Benzyl-N-(4-methoxyphenyl)sulfamoyl) benzoic acid] gave an IC50 of 1000 to 10000 nM.

`C[Si](C)(C)c1ccc(CN(c2ncc(C(F)(F)F)cc2Cl)S(=O)(=O)c2ccc(C(=O)O)cc2)cc1` [Example 140, 4-(N-(3-Chloro-5-(trifluoromethyl)pyridin-2-yl)-N-(4-(trimethylsilyl)benzyl)sulfamoyl)benzoic acid] had an IC50 of less than 1000 nM.

On to `CCOc1ccccc1N(Cc1ccc(Cl)cc1)S(=O)(=O)c1cccc(C(=O)O)c1` [Example 125, 3-(N-(4-Chlorobenzyl)-N-(2-ethoxyphenyl)sulfamoyl) benzoic acid], for which the concentration for half-maximal inhibition (IC50) was 1000 to 10000 nM.

Consider `O=C(O)c1ccc(S(=O)(=O)N(Cc2cccc(C(F)(F)F)c2)c2ncc(C(F)(F)F)cc2Cl)cc1` [Example 23, 4-(N-(3-Chloro-5-(trifluoromethyl)pyridin-2-yl)-N-(3-(trifluoromethyl)benzyl)sulfamoyl)benzoic acid], for which the IC50 is less than 1000 nM.

In the case of `O=C(O)c1ccc(S(=O)(=O)N(CCN2CCOCC2)c2ccc(C(F)(F)F)cc2Cl)cc1` [Example 81, 4-(N-(2-Chloro-4-(trifluoromethyl)phenyl)-N-(2-morpholinoethyl)sulfamoyl)benzoic acid], the IC50 was in the range of 1000 to 10000 nM.

In the case of `CC(=O)NCc1ccc(S(=O)(=O)N(Cc2ccccc2)c2ncc(C(F)(F)F)cc2Cl)cc1` [Example 177, N-(4-(N-Benzyl-N-(3-chloro-5-(trifluoromethyl)pyridin-2-yl)sulfamoyl)benzyl)acetamide], the IC50 is less than 1000 nM.

Regarding `O=C(O)c1cc(S(=O)(=O)N(Cc2ccccc2)c2ccccc2)ccc1Cl` [Example 117, 5-(N-Benzyl-N-phenylsulfamoyl)-2-chlorobenzoic acid], the IC50 fell in the range of 10000 to 30000 nM.

Molecule `Cc1cc(Cl)cnc1N(Cc1ccc(N2CCCC2=O)cc1)S(=O)(=O)c1ccc(C(=O)O)cc1` [Example 80, 4-(N-(5-Chloro-3-methylpyridin-2-yl)-N-(4-(2-oxopyrrolidin-1-yl)benzyl)sulfamoyl)benzoic acid] showed an IC50 of 1000 to 10000 nM.

Molecule `O=C(O)c1ccc(S(=O)(=O)N(Cc2ccccc2C(F)(F)F)c2ncc(Cl)cc2Cl)cc1` [Example 64, 4-(N-(3,5-Dichloropyridin-2-yl)-N-(2-(trifluoromethyl)benzyl)sulfamoyl)benzoic acid] gave an IC50 of less than 1000 nM.

In turn, `N#Cc1ccc(S(=O)(=O)N(Cc2ccccc2)c2ncc(C(F)(F)F)cc2Cl)cc1` [Example 173, N-Benzyl-N-(3-chloro-5-(trifluoromethyl)pyridin-2-yl)-4-cyanobenzenesulfonamide] came in with an IC50 of less than 1000 nM.

In turn, `O=C(CN(c1cccc(C(F)(F)F)c1)S(=O)(=O)c1ccccc1)N1CCCCC1` [Example 6, N-(2-oxo-2-(piperidin-1-yl)ethyl)-N-(3-(trifluoromethyl)phenyl)benzenesulfonamide] registered an IC50 of 10000 to 30000 nM.

Regarding `C[C@@H](c1ccccc1)N(c1ncc(C(F)(F)F)cc1Cl)S(=O)(=O)c1ccc(C(=O)O)cc1` [Example 197, (S)-4-(N-(3-Chloro-5-(trifluoromethyl)pyridin-2-yl)-N-(1-phenylethyl)sulfamoyl)benzoic acid], the IC50 was less than 1000 nM.

Molecule `CN(C)C(=O)NCc1ccc(S(=O)(=O)N(Cc2ccccc2)c2ncc(C(F)(F)F)cc2Cl)cc1` [Example 179, N-Benzyl-N-(3-chloro-5-(trifluoromethyl)pyridin-2-yl)-4-((3,3-dimethylureido)methyl)benzene sulfonamide] came in with a half-maximal inhibitory concentration (IC50) of less than 1000 nM.

Turning to `O=C(O)c1ccc(S(=O)(=O)N(Cc2ccccc2)c2ncc(C(F)(F)F)cc2Br)cc1` [Example 151, 4-(N-Benzyl-N-(3-bromo-5-(trifluoromethyl)pyridin-2-yl)sulfamoyl)benzoic acid], the IC50 was less than 1000 nM.

Molecule `COc1ccc(S(=O)(=O)N(Cc2ccccc2)c2ncc(C(F)(F)F)cc2Cl)cc1` [Example 175, N-Benzyl-N-(3-chloro-5-(trifluoromethyl)pyridin-2-yl)-4-methoxybenzenesulfonamide] showed an IC50 of less than 1000 nM.

On to `Cc1cc(Cl)cnc1N(Cc1ccc(C(F)(F)F)cc1)S(=O)(=O)c1ccc(C(=O)O)cc1` [Example 55, 4-(N-(5-Chloro-3-methylpyridin-2-yl)-N-(4-(trifluoromethyl)benzyl)sulfamoyl)benzoic acid], for which the concentration for half-maximal inhibition (IC50) was less than 1000 nM.

As for `C[C@H](c1ccccc1)N(c1ncc(C(F)(F)F)cc1Cl)S(=O)(=O)c1ccc(C(=O)O)cc1` [Example 166, (R)-4-(N-(3-Chloro-5-(trifluoromethyl)pyridin-2-yl)-N-(1-phenylethyl)sulfamoyl)benzoic acid], the half-maximal inhibitory concentration (IC50) is less than 1000 nM.

As to `CN(C)C(=O)c1ccc(S(=O)(=O)N(Cc2ccccc2)c2ncc(C(F)(F)F)cc2Cl)cc1` [Example 12, 4-(Benzyl(3-chloro-5-(trifluoromethyl)pyridin-2-yl)sulfamoyl)-N,N-dimethylbenzamide], the concentration for half-maximal inhibition (IC50) was less than 1000 nM.

The molecule `O=C(O)c1ccc(S(=O)(=O)N(Cc2ccc(F)c(F)c2)c2ncc(C(F)(F)F)cc2Cl)cc1` [Example 45, 4-(N-(3-Chloro-5-(trifluoromethyl)pyridin-2-yl)-N-(3,4-difluorobenzyl)sulfamoyl)benzoic acid] returned an IC50 of less than 1000 nM.

Molecule `Cc1cc(C(F)(F)F)cnc1N(Cc1ccccc1)S(=O)(=O)c1ccc(C(=O)O)cc1` [Example 153, 4-(N-Benzyl-N-(3-methyl-5-(trifluoromethyl)pyridin-2-yl)sulfamoyl)benzoic acid] registered an IC50 of less than 1000 nM.

Take `O=C(O)c1ccc(S(=O)(=O)N(Cc2ccccc2)c2cc(C(F)(F)F)ccn2)cc1` [Example 21, 4-(N-Benzyl-N-(4-(trifluoromethyl)pyridin-2-yl)sulfamoyl)benzoic acid]: the IC50 lay within 1000 to 10000 nM.

In the case of `O=C(O)c1ccc(S(=O)(=O)N(Cc2ccc(Cl)cc2C(F)(F)F)c2ncc(Cl)cc2Cl)cc1` [Example 72, 4-(N-(4-Chloro-2-(trifluoromethyl)benzyl)-N-(3,5-dichloropyridin-2-yl)sulfamoyl)benzoic acid], the IC50 is less than 1000 nM.

For the molecule `Cc1cc(Cl)cnc1N(Cc1ccc(F)c(C(F)(F)F)c1)S(=O)(=O)c1ccc(C(=O)O)cc1` [Example 76, 4-(N-(5-Chloro-3-methylpyridin-2-yl)-N-(4-fluoro-3-(trifluoromethyl)benzyl)sulfamoyl)benzoic acid], the IC50 is less than 1000 nM.

For `O=C(O)c1ccc(S(=O)(=O)N(Cc2cccs2)c2ncc(C(F)(F)F)cc2Cl)cc1` [Example 167, 4-(N-(3-Chloro-5-(trifluoromethyl)pyridin-2-yl)-N-(thiophen-2-ylmethyl)sulfamoyl)benzoic acid], the IC50 was less than 1000 nM.

`O=C(O)c1ccc(S(=O)(=O)N(Cc2ccc(C(F)(F)F)nc2)c2ncc(C(F)(F)F)cc2Cl)cc1` [Example 160, 4-(N-(3-Chloro-5-(trifluoromethyl)pyridin-2-yl)-N-((6-(trifluoromethyl)pyridin-3-yl)methyl)sulfamoyl)benzoic acid]: the concentration for half-maximal inhibition (IC50) was less than 1000 nM.

For `COc1cccc(C(C)N(c2cccc(Cl)c2)S(=O)(=O)c2ccc(F)cc2C)c1` (stereo not drawn) [Example 139, N-(3-Chlorophenyl)-4-fluoro-N-(1-(3-methoxy-phenyl)ethyl)-2-methyl-benzenesulfonamide], the IC50 was in the range of 1000 to 10000 nM.

`COc1ccc(OC)c(C(C)N(c2ccc(C)cc2)S(=O)(=O)c2ccc(F)cc2C)c1` (stereo not drawn) [Example 96, N-(1-(2,5-Dimethoxyphenyl)ethyl)-4-fluoro-2-methyl-N-p-tolylbenzenesulfonamide]: the half-maximal inhibitory concentration (IC50) lay within 1000 to 10000 nM.
